Measured values taken from patent US20100069366A1, “ANTIBACTERIAL QUINOLINE DERIVATIVES” (JANSSEN-CILAG, priority 2006, published 2010).
≈ marks a conversion by molar mass, not a printed value. Like-named read-outs stand apart in the source and are kept apart here.

Tests used:
Assay type in all cases: cell-based
[1] = system: M. Smegmatis ATCC607; experiment: In-vitro anti-bacterial activity against strain M. smegmatis ATCC607; conditions: for IC90: Mycolicibacterium smegmatis
Description: Flat-bottom, sterile 96-well plastic microtiter plates were filled with 180 μl of sterile deionized water, supplemented with 0.25% BSA. Subsequently, stock solutions (7.8× final test concentration) of compounds were added in 45 μl volumes to a series of duplicate wells in column 2 so as to allow evaluation of their effects on bacterial growth. Serial five-fold dilutions (45 μl in 180 μl) were made directly in the microtiter plates from column 2 to 11 using a customised robot system (Zymark Corp., Hopkinton, Mass.). Pipette tips were changed after every 3 dilutions to minimize pipetting errors with high hydrophobic compounds. Untreated control samples with (column 1) and without (column 12) inoculum were included in each microtiter plate. Approximately 250 CFU per well of bacteria inoculum, in a volume of 100 μl in 2.8× Mueller-Hinton broth medium, was added to the rows A to H, except column 12. The same volume of broth medium without inoculum was added to column 12 in row A to H. The cultures were incubated at 37° C. for 48 hours in a humidified 5% CO2 atmosphere (incubator with open air valve and continuous ventilation). At the end of incubation, two days after inoculation, the bacterial growth was quantitated fluorometrically. Therefore Alamar Blue (10×) was added to all wells in a volume of 20 μl and plates were incubated for another 2 hours at […]
The fluorescence was read in a computer-controlled fluorometer (Cytofluor, Biosearch) at an excitation wavelength of 530 nm and an emission wavelength of 590 nm (gain 30).

[2] = system: Staphylococcus aureus (ATCC29213); experiment: Microtitre plate assay, IC90 determination, STA 29213
Description: (§1) The bacteria used in this study were grown overnight in flasks containing 100 ml Mueller-Hinton Broth (Becton Dickinson—cat. no. 275730) in sterile de-ionized water, with shaking, at 37° C. Stocks (0.5 ml/tube) were stored at −70° C. until use. Bacteria titrations were performed in microtiter plates to detect the TCID50, in which the TCID50 represents the dilution that gives rise to bacterial growth in 50% of inoculated cultures.
(§2) In general, an inoculum level of approximately 100 TCID50 was used for susceptibility testing.
(§3) Flat-bottom, sterile 96-well plastic microtiter plates were filled with 180 μl of sterile deionized water, supplemented with 0.25% BSA. Subsequently, stock solutions (7.8× final test concentration) of compounds were added in 45 μl volumes in column 2 Serial five-fold dilutions (45 μl in […]) were made directly in the microtiter plates from column 2 to reach column 11. Untreated control samples with (column 1) and without (column 12) inoculum were included in each microtiter plate. Depending on the bacteria type, approximately 10 to 60 CFU per well of bacteria inoculum (100 TCID50), in a volume of 100 μl in 2.8× Mueller-Hinton broth medium, was added to the rows A to H, except column 12. The same volume of broth medium without inoculum was added to column 12 in row A to H. The cultures were incubated at 37° C. for 24 hours under a normal atmosphere (incubator with open air valve and continuous ventilation). At the end of incubation, one day after inoculation, the bacterial growth was quantitated fluorometrically. Therefore resazurin (0.6 mg/ml) was added in a volume of 20 μl to all wells 3 hours after inoculation, and the plates were re-incubated overnight. A change in colour from blue to pink indicated the growth of bacteria. The fluorescence was read in a computer-controlled fluorometer (Cytofluor Biosearch) at an excitation wavelength of 530 nm and an emission wavelength of 590 nm. The % growth inhibition achieved by the compounds was calculated according to standard methods.

[3] = system: Streptococcus pneumoniae (ATCC6305); experiment: Microtitre plate assay, IC90 determination, SPN 6305; conditions: 90% inhibitory concentration for bacterial growth, resazurin
Description: as §1, §2, §3

[4] = system: Enterococcus faecalis (ATCC29212); experiment: Microtitre plate assay, IC90 determination, EFA 29212
Description: as §1, §2, §3

[5] = system: Streptococcus pyogens (ATCC8668); experiment: Microtitre plate assay, IC90 determination, SPY 8668
Description: as §1, §2, §3

[6] = system: Pseudomonas aeruginosa (ATCC27853); experiment: Microtitre plate assay, IC90 determination, PAE 27853
Description: as §1, §2, §3

[7] = 90% inhibitory concentration for bacterial growth, 48 hours, Alamar Blue fluorescence
[8] = Staphylococcus aureus ATCC29213, 90% inhibitory concentration for bacterial growth, resazurin
[9] = Streptococcus pneumoniae ATCC6305
[10] = Enterococcus faecalis ATCC29212, 90% inhibitory concentration for bacterial growth, resazurin
[11] = Streptococcus pyogens ATCC8668, 90% inhibitory concentration for bacterial growth, resazurin
[12] = Pseudomonas aeruginosa ATCC27853, 90% inhibitory concentration for bacterial growth, resazurin
[13] = ATCC607, 48 h, read-out: M. smegmatis IC90 (μg/ml), 90% inhibitory concentration for bacterial growth, Alamar Blue fluorescence
[14] = Staphylococcus aureus, ATCC29213, read-out: IC90 (μg/ml) STA 29213
[15] = Streptococcus pneumoniae, ATCC6305, read-out: IC90 (μg/ml) SPN 6305, Streptococcus pneumoniae ATCC6305
[16] = Streptococcus, ATCC8668, read-out: IC90 (μg/ml) SPY 8668
[17] = Pseudomonas aeruginosa, ATCC27853, read-out: IC90 (μg/ml) PAE 27853
[18] = ATCC607, 90% inhibitory concentration for bacterial growth, 48 hours, Alamar Blue fluorescence, read-out: M. smegmatis IC90
[19] = Staphylococcus aureus ATCC29213, 90% inhibitory concentration for bacterial growth, resazurin, read-out: IC90 (μg/ml) STA 29213
[20] = Streptococcus pneumoniae ATCC6305, read-out: IC90 (μg/ml) SPN 6305

SMILES	M. smegmatis IC90 [1, 7] [µg/mL]	IC90 (μg/ml) STA 29213 [2, 8] [µg/mL]	IC90 (μg/ml) SPN 6305 [3, 9] [µg/mL]	IC90 [1, 13] [µg/mL]	IC90 [2, 14] [µg/mL]	IC90 [3, 15] [µg/mL]	further results
COc1nc2ccc(-c3ccccc3)cc2cc1C(C(=CCN(C)C)c1cccc2ccccc12)c1ccccc1 (mixture of isomers) [Compound 32]	1.69	1.69	1.9	–	–	–	IC90 (μg/ml) EFA 29212 [4, 10]: 9.51 µg/mL; IC90 (μg/ml) SPY 8668 [5, 11]: 3.79 µg/mL; IC90 (μg/ml) PAE 27853 [6, 12]: 3.79 µg/mL
COc1nc2ccc(Br)cc2cc1C(=C(C)CCN(C)C)c1ccccc1 (mixture of isomers) [Compound 35]	3.79	33.79	1.35	–	–	–	IC90 (μg/ml) EFA 29212 [4, 10]: 15.09 µg/mL; IC90 (μg/ml) SPY 8668 [5, 11]: 1.35 µg/mL; IC90 (μg/ml) PAE 27853 [6, 12]: 15.09 µg/mL
COc1nc2ccc(Br)cc2cc1C(C(=CCN(C)C)c1cccc(F)c1)c1ccccc1 (racemic) [Compound 25]	40.15	22.58 (≈ 44.7 µM)	8.01 (≈ 15.8 µM)	–	–	–	IC90 (μg/ml) EFA 29212 [4, 10]: 40.15 µg/mL (≈ 79.4 µM); IC90 (μg/ml) SPY 8668 [5, 11]: 17.93 µg/mL (≈ 35.5 µM); IC90 (μg/ml) PAE 27853 [6, 12]: 40.15 µg/mL (≈ 79.4 µM)
COc1nc2ccc(C)cc2cc1C(C(=CCN(C)C)c1ccccc1)c1ccccc1 (racemic) [Compound 30]	2.67	6.7 (≈ 15.9 µM)	1.34 (≈ 3.17 µM)	–	–	–	IC90 (μg/ml) EFA 29212 [4, 10]: 11.91 µg/mL (≈ 28.2 µM); IC90 (μg/ml) SPY 8668 [5, 11]: 6.7 µg/mL (≈ 15.9 µM); IC90 (μg/ml) PAE 27853 [6, 12]: 13.36 µg/mL (≈ 31.6 µM)
CSc1nc2ccc(-c3ccccc3)cc2cc1C(=C(CCN(C)C)c1ccccc1)c1ccccc1 (single isomer, unassigned) [Compound 40]	1.58	19.93 (≈ 39.8 µM)	3.98 (≈ 7.95 µM)	–	–	–	IC90 (μg/ml) EFA 29212 [4, 10]: 15.83 µg/mL (≈ 31.6 µM); IC90 (μg/ml) SPY 8668 [5, 11]: 7.94 µg/mL (≈ 15.9 µM)
COc1nc2ccc(-c3ccccc3)cc2cc1C(/C(=C/CN(C)C)c1ccccc1)c1ccccc1 (stereo not shown) [Compound 11]	–	–	–	1.53 (≈ 3.16 µM)	1.53 (≈ 3.16 µM)	1.22 (≈ 2.52 µM)	IC90 ([4]; Enterococcus faecalis, ATCC29212, read-out: IC90 (μg/ml) EFA 29212): 15.3 µg/mL (≈ 31.6 µM); IC90 [5, 16]: 7.68 µg/mL (≈ 15.8 µM); IC90 [6, 17]: 7.68 µg/mL (≈ 15.8 µM)
COc1nc2ccc(Br)cc2cc1C(/C(C)=C/CN(C)C)c1ccccc1 (stereo not shown) [Compound 14]	–	–	–	–	–	–	IC90 [1, 18]: 1.35 µg/mL (≈ 3.17 µM); IC90 [2, 19]: 33.8 µg/mL (≈ 79.4 µM); IC90 [3, 20]: 1.35 µg/mL (≈ 3.17 µM); IC90 ([4]; Enterococcus faecalis ATCC29212, 90% inhibitory concentration for bacterial growth, resazurin, read-out: IC90 (μg/ml) EFA 29212): 37.9 µg/mL (≈ 89.1 µM); IC90 ([5]; Streptococcus pyogens ATCC8668, 90% inhibitory concentration for bacterial growth, resazurin, read-out: IC90 (μg/ml) SPY 8668): 26.8 µg/mL (≈ 63.1 µM); IC90 ([6]; Pseudomonas aeruginosa ATCC27853, 90% inhibitory concentration for bacterial growth, resazurin, read-out: IC90 (μg/ml) PAE 27853): 37.9 µg/mL (≈ 89.1 µM)
COc1nc2ccc(-c3ccco3)cc2cc1C(/C(=C/CN(C)C)c1cccc2ccccc12)c1ccccc1 (stereo not shown) [Compound 21]	–	–	–	14.8 (≈ 28.2 µM)	41.7 (≈ 79.4 µM)	23.4 (≈ 44.7 µM)	–
COc1nc2ccc(-c3ccco3)cc2cc1/C(=C(/CCN(C)C)c1cccc2ccccc12)c1ccccc1 [Compound 22]	–	–	–	1.66 (≈ 3.16 µM)	20.9 (≈ 39.8 µM)	20.9 (≈ 39.8 µM)	–
COc1nc2ccc(Br)cc2cc1C(/C(=C/C[N+](C)(C)C)c1cccc(F)c1)c1ccccc1 (stereo not shown) [Compound 23]	–	–	–	1.85	1.65	1.85	IC90 [5, 16]: 1.65 µg/mL; IC90 [6, 17]: 6.55 µg/mL
COc1nc2ccc(-c3cccnc3)cc2cc1C(=C(CCN(C)C)c1cccc2ccccc12)c1ccccc1 [Compound 41]	3.79	8.49 (≈ 15.8 µM)	9.53 (≈ 17.8 µM)	–	–	–	–
COc1nc2ccc(-c3ccccc3)cc2cc1C(=C(CCn1ccnc1)c1ccccc1)c1ccccc1 [Compound 46]	1.61	9.03 (≈ 17.8 µM)	8.05 (≈ 15.9 µM)	–	–	–	–
c1ccc(/C(CCCCN2CCCCC2)=C(/c2ccccc2)c2cnc3ccccc3c2)cc1 [Compound 49]	–	–	–	7.08 (≈ 15.9 µM)	44.7 (≈ 100 µM)	8.91 (≈ 19.9 µM)	–
COc1ccc(/C(CCCCN2CCCCC2)=C(/c2ccccc2)c2cnc3ccccc3c2)cc1 [Compound 51]	–	–	–	–	–	–	IC90 [1, 18]: 7.55 µg/mL (≈ 15.8 µM); IC90 [2, 19]: 47.7 µg/mL (≈ 100 µM); IC90 [3, 20]: 21.3 µg/mL (≈ 44.7 µM)
Clc1ccc(/C(CCCCN2CCCCC2)=C(/c2ccc(Cl)cc2)c2cnc3ccccc3c2)cc1 [Compound 52]	–	–	–	1.63 (≈ 3.16 µM)	10.3 (≈ 20 µM)	10.3 (≈ 20 µM)	–
COc1ccc(/C(CCCCN2CCCCC2)=C(/c2ccc(Cl)cc2)c2cnc3ccccc3c2)cc1 [Compound 53]	–	–	–	–	–	–	IC90 [1, 18]: 2.03 µg/mL (≈ 3.97 µM); IC90 [2, 19]: 9.09 µg/mL (≈ 17.8 µM); IC90 [3, 20]: 10.2 µg/mL (≈ 20 µM)
N#Cc1ccc(/C(=C(\CCCCN2CCCCC2)c2ccccc2)c2cnc3ccccc3c2)cc1 [Compound 54]	–	–	–	11.8 (≈ 25.1 µM)	42 (≈ 89.1 µM)	47.2 (≈ 100 µM)	–
N#Cc1ccc(/C(=C(\CCCCN2CCCCC2)c2ccc(Cl)cc2)c2cnc3ccccc3c2)cc1 [Compound 55]	–	–	–	8.02 (≈ 15.8 µM)	8.02 (≈ 15.8 µM)	10.1 (≈ 20 µM)	–
COc1ccc(/C(=C(\CCCCN2CCCCC2)c2ccc(Cl)cc2)c2cnc3ccccc3c2)cc1 [Compound 58]	–	–	–	8.1 (≈ 15.8 µM)	10.2 (≈ 20 µM)	12.8 (≈ 25.1 µM)	–
COc1nc2ccc(Br)cc2cc1C(/C(=C/C#N)CCCCN1CC2CC1CN2Cc1ccccc1)c1ccccc1 (stereo not shown) [Compound 60]	–	–	–	–	–	–	IC90 [1, 18]: 1.97 µg/mL (≈ 3.17 µM); IC90 [2, 19]: 1.97 µg/mL (≈ 3.17 µM); IC90 [3, 20]: 2.48 µg/mL (≈ 3.99 µM)
CCN(C)CCC/C=C(\CCc1ccccc1)C(c1ccccc1)c1cc2cc(Br)ccc2nc1OC (stereo not shown) [Compound 61]	–	–	–	–	–	–	IC90 [1, 18]: 1.76 µg/mL (≈ 3.16 µM); IC90 [2, 19]: 1.76 µg/mL (≈ 3.16 µM); IC90 [3, 20]: 1.76 µg/mL (≈ 3.16 µM)
